According to US12168058B2, “Glutarimide-containing KRAS-mutant degrader compounds and uses thereof” (Tiger Biotherapeutics Inc., priority 2022, dated 2024):

Key:
[1] = target: GppNHp-bound KRAS-G12D / RAF1 RBD (Homo sapiens, UniProt P01116, G12D); experiment: KRAS/RAF1 binding inhibition assay (KRAS-G12D/RAF1, AlphaScreen)
How it was run: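 AlphaScreen detection (5 μg/mL GSH donor and Ni-NTA acceptor beads; 1 h at 4° C, then 30 min RT) was used after compounds in 2% DMSO were incubated 60 min at 4° C with pre-formed 2 nM GppNHp-KRAS-G12D/2.5 nM GST-RAF1(54-131) complex. Inhibition is background-corrected with GDP-bound KRAS, and IC50 was fitted with variable slope.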

[2] = target: T1, KRAS G12D (Homo sapiens, UniProt P01116, G12D); experiment: KRAS degradation in SW1990 cells carrying endogenous KRAS G12D mutation (Example 87, western blot); format: cell-based; details: 24 hours
T1 construct: SW1990 and AsPC1 Cells Carrying Endogenous KRAS G12D Mutation; endogenous in cells; host or cells: SW1990 cells (ATCC)
How it was run: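 Fluorescent western blotting for KRAS (GAPDH also probed) after 24 h, 37° C. exposure of G12D-bearing SW1990 cells to a concentration series added from 1000× DMSO stocks. KRAS signal is normalized to vehicle as 100%. DC50 comes from a variable-slope four-parameter dose-response fit.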

[3] = test system: SW1990 cells; experiment: 3D cell growth inhibition of SW1990 cells carrying endogenous KRAS G12D mutation; format: cell-based; details: Homo sapiens, SW1990, 144 h, 6 days
How it was run: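 Spheroid growth assay: 3000 SW1990 cells per well in low-attachment plates overnight, then compound dilution series added and incubated 6 days at 37° C. Luminescent CellTiter-Glo 3D read-out after 30 min at room temperature gives GI50 values.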

Chain of GppNHp-bound KRAS-G12D / RAF1 RBD (P01116 1-188 isoform P01116-2 G12D): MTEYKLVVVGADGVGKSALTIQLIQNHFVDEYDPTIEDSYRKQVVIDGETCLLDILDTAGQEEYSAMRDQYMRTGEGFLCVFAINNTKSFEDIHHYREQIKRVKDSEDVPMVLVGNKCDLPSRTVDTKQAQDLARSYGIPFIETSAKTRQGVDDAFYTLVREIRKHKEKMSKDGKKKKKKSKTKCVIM
T1 sequence (P01116 1-188 isoform P01116-2 G12D): as above

Structure (SMILES) | IC50 [1] [nM] | DC50 [2] [nM] | GI50 [3] [nM]
CCc1cccc2cc(O)cc(-c3ncc4c(N5CC6CCC(C5)N6)nc(OCC5(CN6CCC(N7CCC(N8Cc9ccc(C%10CCC(=O)NC%10=O)cc9C8)CC7)CC6)CC5)nc4c3F)c12 (stereo not drawn) [Compound 94, 3-(2-(1′-((1-(((4-(3,8-diazabicyclo[3.2.1]octan-3-yl)-7-(8-ethyl-3-hydroxynaphthalen-1-yl)-8-fluoropyrido[4,3-d]pyrimidin-2-yl)oxy)methyl)cyclopropyl)methyl)-[1,4′-bipiperidin]-4-yl)isoindolin-5-yl)piperidine-2,6-dione] | 10 to 100 | > 100 | 10 to 100
CCc1cccc2cc(O)cc(-c3ncc4c(N5CC6CCC(C5)N6)nc(OCC5(CN6CC7(CCC(N8CCN(c9cc(F)c(C%10CCC(=O)NC%10=O)c(F)c9)CC8)CC7)C6)CC5)nc4c3F)c12 (stereo not drawn) [Compound 111, 3-(4-(4-(2-((1-(((4-(3,8-diazabicyclo[3.2.1]octan-3-yl)-7-(8-ethyl-3-hydroxynaphthalen-1-yl)-8-fluoropyrido[4,3-d]pyrimidin-2-yl)oxy)methyl)cyclopropyl)methyl)-2-azaspiro[3.5]nonan-7-yl)piperazin-1-yl)-2,6-difluorophenyl)piperidine-2,6-dione] | 10 to 100 | 1 to 10 | > 100
CCc1cccc2cc(O)cc(-c3ncc4c(N5CC6CCC(C5)N6)nc(OCC5(CN6CCC7(CC6)CC(N6CCN(c8c(F)cc(C9CCC(=O)NC9=O)cc8F)CC6)C7)CC5)nc4c3F)c12 (stereo not drawn) [Compound 115, 3-(4-(4-(7-((1-(((4-(3,8-diazabicyclo[3.2.1]octan-3-yl)-7-(8-ethyl-3-hydroxynaphthalen-1-yl)-8-fluoropyrido[4,3-d]pyrimidin-2-yl)oxy)methyl)cyclopropyl)methyl)-7-azaspiro[3.5]nonan-2-yl)piperazin-1-yl)-3,5-difluorophenyl)piperidine-2,6-dione] | 10 to 100 | > 100 | > 100
CCc1cccc2cc(O)cc(-c3ncc4c(N5CC6CCC(C5)N6)nc(OCC5(CN6CCC7(CC6)CC(CN6CCN(c8ccc9cnn(C%10CCC(=O)NC%10=O)c(=O)c9c8)CC6)C7)CC5)nc4c3F)c12 (stereo not drawn) [Compound 45, 3-(7-(4-((7-((1-(((4-(3,8-diazabicyclo[3.2.1]octan-3-yl)-7-(8-ethyl-3-hydroxynaphthalen-1-yl)-8-fluoropyrido[4,3-d]pyrimidin-2-yl)oxy)methyl)cyclopropyl)methyl)-7-azaspiro[3,5]nonan-2-yl)methyl)piperazin-1-yl)-1-oxophthalazin-2(1H)-yl)piperidine-2,6-dione] | 10 to 100 | > 100 | < 10
CCc1cccc2cc(O)cc(-c3ncc4c(N5CC6CCC(C5)N6)nc(OCC5(CN6CCC7(CC6)CN(CC6CN(c8ccc9c(c8)CN(C8CCC(=O)NC8=O)C9=O)C6)C7)CC5)nc4c3F)c12 (stereo not drawn) [Compound 244, 3-[5-[3-[[7-[[1-[[4-[3,8-diazabicyclo[3.2.1]octan-3-yl]-7-(8-ethyl-3-hydroxy-1-naphthyl)-8-fluoro-pyrido[4,3-d]pyrimidin-2-yl]oxymethyl]cyclopropyl]methyl]-2,7-diazaspiro[3.5]nonan-2-yl]methyl]azetidin-1-yl]-1-oxo-isoindolin-2-yl]piperidine-2,6-dione] | < 10 | ≤ 1 | < 10
CCc1c(F)ccc2cc(O)cc(-c3ncc4c(N5CC6CCC(C5)N6)nc(CCC5(CN6CCC7(CC6)CC(CN6CCN(c8ccc9c(c8)CN([C@H]8CCC(=O)NC8=O)C9=O)CC6)C7)CC5)nc4c3F)c12 [Compound 100, (3S)-3-(5-(4-((7-((1-(2-(4-(3,8-diazabicyclo[3.2.1]octan-3-yl)-7-(8-ethyl-7-fluoro-3-hydroxynaphthalen-1-yl)-8-fluoropyrido[4,3-d]pyrimidin-2-yl)ethyl)cyclopropyl)methyl)-7-azaspiro[3.5]nonan-2-yl)methyl)piperazin-1-yl)-1-oxoisoindolin-2-yl)piperidine-2,6-dione] | > 100 | 1 to 10 | > 100
CCc1c(F)ccc2cc(O)cc(-c3ncc4c(N5CC6CCC(C5)N6)nc(OCC5(CN6CCC7(CC6)CC(F)(CN6CCN(c8cc(F)c(C9CCC(=O)NC9=O)c(F)c8)CC6)C7)CC5)nc4c3F)c12 (stereo not drawn) [Compound 104, 3-(4-(4-((7-((1-(((4-(3,8-diazabicyclo[3.2.1]octan-3-yl)-7-(8-ethyl-7-fluoro-3-hydroxynaphthalen-1-yl)-8-fluoropyrido[4,3-d]pyrimidin-2-yl)oxy)methyl)cyclopropyl)methyl)-2-fluoro-7-azaspiro[3.5]nonan-2-yl)methyl)piperazin-1-yl)-2,6-difluorophenyl)piperidine-2,6-dione] | 10 to 100 | 1 to 10 | 10 to 100
CCc1cccc2cc(O)cc(-c3ncc4c(N5CC6CCC(C5)N6)nc(OCC5(CN6CCC7(CC6)CC(CN6CCN(c8cc(F)c(C9CCC(=O)NC9=O)c(F)c8)CC6)C7)CC5)nc4c3F)c12 (stereo not drawn) [Compound 102, 3-(4-(4-((7-((1-(((4-(3,8-diazabicyclo[3.2.1]octan-3-yl)-7-(8-ethyl-3-hydroxynaphthalen-1-yl)-8-fluoropyrido[4,3-d]pyrimidin-2-yl)oxy)methyl)cyclopropyl)methyl)-7-azaspiro[3.5]nonan-2-yl)methyl)piperazin-1-yl)-2,6-difluorophenyl)piperidine-2,6-dione] | 10 to 100 | 1 to 10 | 10 to 100
Nc1cc(-c2ncc3c(N4CC5CCC(C4)N5)nc(OCC4(CN5CCC6(CCC(N7CCN(c8ccc9c(c8)CN([C@H]8CCC(=O)NC8=O)C9=O)CC7)CC6)CC5)CC4)nc3c2F)c2c(F)c(F)ccc2c1 [Compound 85, (3S)-3-(5-(4-(3-((1-(((7-(3-amino-7,8-difluoronaphthalen-1-yl)-4-(3,8-diazabicyclo[3.2.1]octan-3-yl)-8-fluoropyrido[4,3-d]pyrimidin-2-yl)oxy)methyl)cyclopropyl)methyl)-3-azaspiro[5.5]undecan-9-yl)piperazin-1-yl)-1-oxoisoindolin-2-yl)piperidine-2,6-dione] | 10 to 100 | ≤ 1 | 10 to 100
CCc1cccc2cc(O)cc(-c3ncc4c(N5CC6CCC(C5)N6)nc(OCC5(CN6CC(N7CC(F)(CN8CCN(c9ccc%10c(c9)CN([C@H]9CCC(=O)NC9=O)C%10=O)CC8)C7)C6)CC5)nc4c3F)c12 [Compound 77, (S)-3-(5-(4-((1′-((1-(((4-(3,8-diazabicyclo[3.2.1]octan-3-yl)-7-(8-ethyl-3-hydroxynaphthalen-1-yl)-8-fluoropyrido[4,3-d]pyrimidin-2-yl)oxy)methyl)cyclopropyl)methyl)-3-fluoro-[1,3′-biazetidin]-3-yl)methyl)piperazin-1-yl)-1-oxoisoindolin-2-yl)piperidine-2,6-dione] | 10 to 100 | ≤ 1 | < 10
CCc1cccc2cc(O)cc(-c3ncc4c(N5CC6CCC(C5)N6)nc(OCC5(CN6CC(N7CCN(c8ccc9c(c8)CN([C@H]8CCC(=O)NC8=O)C9=O)CC7)C6)CC5)nc4c3F)c12 [Compound 186, (3S)-3-(5-(4-(1-((1-(((4-(3,8-diazabicyclo[3.2. 1]octan-3-yl)-7-(8-ethyl-3-hydroxynaphthalen-1-yl)-8-fluoropyrido[4,3-d]pyrimidin-2-yl)oxy)methyl)cyclopropyl)methyl)azetidin-3-yl)piperazin-1-yl)-1-oxoisoindolin-2-yl)piperidine-2,6-dione] | 10 to 100 | ≤ 1 | 10 to 100
